From EP4656642A1, “ESTROGEN RECEPTOR PROTEOLYSIS TARGETING CHIMERA COMPOUND AND USE THEREOF” (GAN & LEE PHARM CO., LTD, priority 2023, dated 2024) come the findings set out here.

The target of this experiment is T1, AR protein (Homo sapiens, UniProt P10275).
T1 construct: host or cells: VCaP
T1 sequence (P10275 1-920): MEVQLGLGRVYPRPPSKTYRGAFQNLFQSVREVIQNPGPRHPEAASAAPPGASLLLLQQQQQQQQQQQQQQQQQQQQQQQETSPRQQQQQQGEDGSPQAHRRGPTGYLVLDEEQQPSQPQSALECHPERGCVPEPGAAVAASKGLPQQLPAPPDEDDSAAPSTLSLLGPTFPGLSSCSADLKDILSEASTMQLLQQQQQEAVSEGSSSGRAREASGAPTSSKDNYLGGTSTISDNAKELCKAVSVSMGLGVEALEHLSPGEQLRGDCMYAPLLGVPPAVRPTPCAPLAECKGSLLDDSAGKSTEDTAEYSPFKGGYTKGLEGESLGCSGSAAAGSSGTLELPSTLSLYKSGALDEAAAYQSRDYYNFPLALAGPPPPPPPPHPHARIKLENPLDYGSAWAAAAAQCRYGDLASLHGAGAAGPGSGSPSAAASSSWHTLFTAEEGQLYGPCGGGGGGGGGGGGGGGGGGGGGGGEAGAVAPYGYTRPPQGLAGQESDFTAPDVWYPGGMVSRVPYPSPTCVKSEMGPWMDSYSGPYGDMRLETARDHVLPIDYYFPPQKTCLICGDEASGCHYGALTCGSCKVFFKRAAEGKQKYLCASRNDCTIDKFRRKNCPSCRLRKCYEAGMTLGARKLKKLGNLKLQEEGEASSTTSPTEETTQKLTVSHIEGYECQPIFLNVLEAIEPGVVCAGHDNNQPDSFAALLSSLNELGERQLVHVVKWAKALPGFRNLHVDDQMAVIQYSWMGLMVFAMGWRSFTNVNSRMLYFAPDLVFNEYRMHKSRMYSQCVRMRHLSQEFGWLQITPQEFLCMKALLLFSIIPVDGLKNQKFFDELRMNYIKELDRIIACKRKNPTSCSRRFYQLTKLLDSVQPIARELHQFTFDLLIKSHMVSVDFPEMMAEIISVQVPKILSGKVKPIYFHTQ
In kind it is cell-based. The following applies: 8 h. The method, then: Test Example 9 Degradation activity of the compounds disclosed in the present disclosure against AR protein in VCAP cells (cell source: ATCC)
AR-positive human prostate cancer cells, VCaP, were inoculated in six-well microplates (Thermo Catalog No. 140675) in DMEM (GiBco Catalog No. 11995-065) containing 10% FBS (Hyclone Catalog No. SH30406.05) at a density of 3 × 10^5 cells/well. […] After 8 h, the culture medium was discarded, and cells were washed with PBS, then RIPA lysis buffer containing 1% Protease Inhibitor Cocktail was added, and the total protein extract was obtained after lysis and centrifugation, and the protein concentration in the extract was detected by BCA method. Protein electrophoresis was carried out by SDS-PAGE, after which the protein was transferred to PVDF (Millipore Sigma catalog number PSRP010R5) membrane by 100V constant-voltage electrotransfer for 60 min, and the PVDF membrane was placed in 1×TBST solution with 5% milk and blocked at room temperature for 1 h. The primary antibody solution (Anti-Androgen receptor, Cell Signaling Technology Catalog No. 5153S; 1: 2000 dilution) was prepared and incubated overnight at 4°C. The primary antibody solution was discarded, and the PVDF membrane was washed three times with 1× TBST for 5 min each. The secondary antibody solution (Thermo catalog number SA5-35571; 1:7500 dilution) was prepared, and the secondary antibody dilution was incubated at room temperature for 1h. The secondary antibody solution was discarded, and the PVDF membrane was washed three times with 1×TBST for 5 min each. Western membrane imaging was performed using a dual-color infrared laser imaging system (Licor catalog number Odyssey CLX). Bands were analyzed in grayscale using the software Image Studio. For each sample, GAPDH protein bands were detected as internal reference. The degradation rates of the AR protein for the compounds and positive control sample were calculated based on the grayscale of the protein bands.

`C[C@H]1CC2(CCN(c3ccc(N4CCC(CN5CCC6(CC5)COc5c6ccc6c5C(=O)N(C5CCC(=O)NC5=O)C6)CC4)cc3)CC2)CN1c1ccc(C#N)c(Cl)c1` (stereo partly drawn) [2-103]: the “Degradation rates of the AR protein in VCAP cells, 0.5 nM” value (shortened to “Degradation rates … 0.5 nM”) turned out to be 0% and the “Degradation rates of the AR protein in VCAP cells, 5 nM” value is 47%.
Regarding `CC1(CN2CCC3(CC2)COc2c3ccc3c2C(=O)N(C2CCC(=O)NC2=O)C3)CCN(c2ccc(C(=O)N[C@H]3CC[C@H](Oc4ccc(C#N)c(Cl)c4)CC3)nn2)CC1` (relative stereo) [2-262], the “Degradation rates … 0.5 nM” value is reported as 34% and the “Degradation rates of the AR protein in VCAP cells, 5 nM” value was 75%.
In the case of `COc1cc(O[C@H]2CC[C@H](NC(=O)c3ccc(N4CCC(C)(CN5CCC6(CC5)COc5c6ccc6c5C(=O)N(C5CCC(=O)NC5=O)C6)CC4)nn3)CC2)ccc1C#N` (relative stereo) [2-261], the “Degradation rates … 0.5 nM” value is 44% and the “Degradation rates of the AR protein in VCAP cells, 5 nM” value came out at 82%.
The corresponding values for `COc1cc(O[C@H]2C(C)(C)[C@H](NC(=O)c3ccc(N4CCC(C)(CN5CCC6(CC5)COc5c6ccc6c5C(=O)N(C5CCC(=O)NC5=O)C6)CC4)cc3)C2(C)C)ccc1C#N` (relative stereo) [2-292] are 30% and 72%.
For `COc1cc(O[C@H]2C(C)(C)[C@H](NC(=O)c3ccc(N4CCC(CN5CCC6(CC5)COc5c6ccc6c5C(=O)N(C5CCC(=O)NC5=O)C6)(OC)CC4)cc3)C2(C)C)ccc1C#N` (relative stereo) [2-293] the same measures were 72% and 89%.
Turning to `N#Cc1ccc(O[C@H]2CC[C@H](NC(=O)c3ccc(N4CCC(F)(CN5CCC6(CC5)COc5c6ccc6c5C(=O)N(C5CCC(=O)NC5=O)C6)CC4)nn3)CC2)cc1Cl` (relative stereo) [2-315], the “Degradation rates … 0.5 nM” value was determined as 31% and the “Degradation rates of the AR protein in VCAP cells, 5 nM” value is on record as 71%.
In the case of `COc1cc(O[C@H]2CC[C@H](NC(=O)c3ccc(N4CCC(F)(CN5CCC6(CC5)COc5c6ccc6c5C(=O)N(C5CCC(=O)NC5=O)C6)CC4)nn3)CC2)ccc1C#N` (relative stereo) [2-316], the “Degradation rates … 0.5 nM” value is 35% and the “Degradation rates of the AR protein in VCAP cells, 5 nM” value is 61%.
The corresponding values for `COc1cc(O[C@H]2C(C)(C)[C@H](NC(=O)c3ccc(N4CCC(CN5CCC6(CC5)COc5c6ccc6c5C(=O)N(C5CCC(=O)NC5=O)C6)CC4)cc3)C2(C)C)ccc1C#N` (relative stereo) [2-318] are 55% and 78%.
Consider `COC1(CN2CCC3(CC2)COc2c3ccc3c2C(=O)N(C2CCC(=O)NC2=O)C3)CCN(c2ccc(C(=O)N[C@H]3CC[C@H](Oc4ccc(C#N)c(Cl)c4)CC3)nn2)CC1` (relative stereo) [2-263], for which the “Degradation rates … 0.5 nM” value is reported as 65% and the “Degradation rates of the AR protein in VCAP cells, 5 nM” value came out at 88%.
